Patent publication US5523408A, “2-carbocyclic and 2-heterocyclic quinoline-4-carboxylic acids and salts thereof useful as immunosuppressive agents” (The Dupont Merck Pharmaceutical Company, priority 1994, dated 1996)
pIC50: −log10 of the molar value. Counter-ions that a name gives are not always drawn. Like-named read-outs stand apart in the source and are kept apart here.

Legend:
[1] = system: human mixed lymphocyte reaction; assay: Human Mixed Lymphocyte Reaction Test (MLR); format: cell-based; conditions: 144 h
Description: The human mixed lymphocyte reaction is an in vitro immune response. Inhibition of the human mixed lymphocyte reaction immune response is a standard assay used in the field of immunology, which is considered to be indicative of in vivo immunosuppressive activity. […] The human mixed lymphocyte is also used as a model system for immune reactions involving T-cell-mediated immune responses. Such T-cell-mediated immune responses have been linked to the disease pathology associated with autoimmune diseases, chronic inflammatory diseases, graft versus host disease and organ transplantation rejection.
Blood was obtained by venipuncture from two non-related human donors. Peripheral blood mononuclear cells (PBMC) were isolated from these samples by using the Leuco Prep procedure (Becton-Dickinson). […] Cells from donor A (2×10^5) were incubated with cells from donor B (2×10^5) with or without compound in 96 well round bottom microtiter plates at 37° C., 5% CO2 for 6 days. Eighteen hours prior to harvesting cells from the plates, all wells were pulsed with 1 uCi of tritiated-thymidine. Cells from the plates were washed on day 6 and tritiated-thymidine incorporation was determined using a scintillation counter.

[2] = system: contact sensitivity response to 2,4-dinitrofluorobenzene (DNFB); assay: Assay of Contact Sensitivity Response to DNFB in Mice; format: in vivo, Balb/c female mice; conditions: oral, 0.25% Methocel; ear swelling 24 hours after DNFB challenge
Description: Contact sensitivity to 2,4-dinitrofluorobenzene (DNFB) has been extensively studied and characterized in the mouse to determine the regulatory mechanisms involved in cell mediated immune responses (Claman et al., Immunol. Rev. 50:105, 1980; Young and Young, "Cutaneous Models of Inflammation for the Evaluation of Topical and Systemic Pharmacological Agents" in Pharmacological Methods in the Control of Inflammation (Chang and Lewis, Eds.), Alan R. Liss, Inc., New York, pp. 215-231, 1989). This is an antigen-specific T-cell mediated inflammatory response that represents delayed-type hypersensitivity reactions seen in both humans and other mammals. This contact sensitivity animal model is used routinely in many laboratories for pharmacological screening of antiinflammatory agents.
The contact sensitivity model used for this study is an extensively used model system for delayed-type hypersensitivity reactions involving cell-mediated immune responses (T-cell mediated responses), which have been linked to the disease pathology associated with organ transplantation rejection, graft versus host disease, multiple sclerosis, myasthenia gravis, systemic lupus erythematosus, rheumatoid arthritis, and other chronic inflammatory diseases and autoimmune diseases for which the T-cell is pivotal to mounting an immune or autoimmune response.
Balb/c female mice (approximately 20 g, Charles River) were sensitized on the shaved abdomen with 25 uL of 0.5% 2,4-dinitrofluorobenzene (DNFB) (Eastman Kodak Co.) in a vehicle of 4:1 acetone: olive oil on days 0 and 1. Mice were ear challenged with 20 uL of 0.2% DNFB in a vehicle of 4:1 acetone: olive oil on day 5. An identical segment of the ear was measured immediately before challenge and 24 hours later with an engineer's micrometer. Ear swelling was expressed as the difference in ear thickness before and after challenge in units of 10-4 inches±SEM. Percent suppression was calculated as: [formula] Compounds (prepared in 0.25% Methocel®) were administered orally. Control animals received only vehicle (0.25% Methocel®). Negative controls were not sensitized on days 0 and 1 but were ear challenged on day 5. Ten mice are typically used per group.
Contact sensitivity results for representative compounds of the present invention are shown in Table B. In this table, + designates greater than 30% suppression of control ear swelling.

[3] = human MLR, tritiated-thymidine incorporation, 6 days, read-out: IC50

pIC50 [1, 3]	Structure (SMILES)	Contact Sensitivity Activity (suppression of control ear swelling) [2]	pIC50 ([1]; Homo sapiens)
–	Cc1c(N2CCc3c(-c4ccccc4)cccc32)nc2ccc(F)cc2c1C(=O)[O-].[Na+] [Ex. 2, 6-fluoro-3-methyl-2-(4-phenyl-1-indolinyl)quinoline-4-carboxylic acid, sodium salt]	+ (greater than 30% suppression of control ear swelling)	–
5.00 to 7.30	Cc1c(N2CCc3c(-c4ccccc4)cccc32)nc2ccccc2c1C(=O)O [Ex. 4]	+ (greater than 30% suppression of control ear swelling)	–
–	O=C(O)c1cc(N2CCc3c(-c4ccccc4)cccc32)nc2ccc(F)cc12 [Ex. 5, 6-fluoro-2-(4-phenyl-1-indolinyl)-quinoline-4-carboxylic acid, sodium salt]	–	> 7.30
–	O=C([O-])c1cc(N2CCc3c(-c4cccc(C(F)(F)F)c4)cccc32)nc2ccc(F)cc12.[Na+] [Ex. 6, 6-fluoro-2-[4-(3-trifluoromethylphenyl)-1-indolinyl]-quinoline-4-carboxylicacid, sodium salt]	+ (greater than 30% suppression of control ear swelling)	> 7.30
> 7.30	O=C(O)c1cc(N2CCc3c(-c4ccccc4F)cccc32)nc2ccc(F)cc12 [Ex. 7]	+ (greater than 30% suppression of control ear swelling)	–
–	Cc1ccccc1-c1cccc2c1CCN2c1cc(C(=O)O)c2cc(F)ccc2n1 [Ex. 8, 6-fluoro-2-[4-(2-methylphenyl)-1-indolinyl]-quinoline-4-carboxylic acid, sodium salt]	–	> 7.30
> 7.30	COc1ccccc1-c1cccc2c1CCN2c1nc2ccc(F)cc2c(C(=O)O)c1C [Ex. 9, 6-fluoro-[4-(2-methoxyphenyl)-1-indolinyl]-3-methylquinoline-4-carboxylic acid, sodium salt]	–	–
–	Cc1c(N2CCc3c(-c4ccccc4F)cccc32)nc2ccc(F)cc2c1C(=O)[O-].[Na+] [Ex. 10, 6-fluoro-2-[4-(2-fluorophenyl)-1-indolinyl]-3-methylquinoline-4-carboxylic acid, sodium salt]	+ (greater than 30% suppression of control ear swelling)	> 7.30
–	Cc1ccccc1-c1cccc2c1CCN2c1nc2ccc(F)cc2c(C(=O)O)c1C [Ex. 11, 6-fluoro-3-methyl-2-[4-(2-methylphenyl)-1-indolinyl]-quinoline-4-carboxylicacid, sodium salt]	–	> 7.30
–	Cc1c(N2CCc3c(-c4cccc(C(F)(F)F)c4)cccc32)nc2ccc(F)cc2c1C(=O)[O-].[Na+] [Ex. 12, 6-fluoro-3-methyl-2-[4-(3-trifluoromethylphenyl)-1-indolinyl]-quinoline-4-carboxylic acid, sodium salt]	+ (greater than 30% suppression of control ear swelling)	> 7.30
> 7.30	COc1cccc(-c2cccc3c2CCN3c2nc3ccc(F)cc3c(C(=O)O)c2C)c1 [Ex. 13, 6-fluoro-[4-(3-methoxyphenyl)-1-indolinyl]-3-methylquinoline-4-carboxylic acid, sodium salt]	–	–
–	Cc1c(-n2ccc3c(-c4ccccc4)cccc32)nc2ccc(F)cc2c1C(=O)[O-].[Na+] [Ex. 47, 6-fluoro-3-methyl-2-(4-phenyl-1-indolyl)-quinoline-4-carboxylic acid, sodium salt]	+ (greater than 30% suppression of control ear swelling)	–
5.00 to 7.30	Cc1c(-n2cnc3c(-c4ccccc4)cc(F)cc32)nc2ccc(F)cc2c1C(=O)O [Ex. 68, 6-fluoro-3-methyl-2-(6-fluoro-4-phenyl-1-benzimidazolyl)quinoline-4-carboxylic acid]	–	–
–	Cc1c(-c2cn(C)c3c(-c4ccccc4)cccc23)nc2ccc(C(F)(F)F)cc2c1C(=O)O [Ex. 73, 3-methyl-2-(7-phenyl-1-methyl-3-indolyl)-6-trifluoromethylquinoline-4-carboxylic acid, sodium salt]	–	> 7.30
–	Cc1c(-c2cn(C)c3c(-c4ccccc4)cccc23)nc2ccc(F)cc2c1C(=O)[O-].[Na+] [Ex. 75, 6-fluoro-3-methyl-2-(7-phenyl-1-methyl-3-indolyl)-quinoline-4-carboxylic acid, sodium salt]	+ (greater than 30% suppression of control ear swelling)	5.00 to 7.30
5.00 to 7.30	Cc1c(-c2cccc3c(-c4ccccc4)cccc23)nc2ccc(F)cc2c1C(=O)O [Ex. 128, 6-fluoro-3-methyl-2-(5-phenyl-1-naphthyl) quinoline-4-carboxylic acid, sodium salt]	–	–
–	CN(Cc1cnc2nc(N)nc(N)c2n1)c1ccc(C(=O)N[C@@H](CCC(=O)O)C(=O)O)cc1 [methotrexate, reference compound]	+ (greater than 30% suppression of control ear swelling)	> 7.30

Structure (SMILES)	pIC50 [1, 3]	Contact Sensitivity Activity (suppression of control ear swelling) [2]	pIC50 ([1]; Homo sapiens)
Cc1c(N2CCc3c(-c4ccccc4)cccc32)nc2ccc(F)cc2c1C(=O)O [Ex. 1, 6-fluoro-3-methyl-2-(4-phenyl-1-indolinyl)quinoline-4-carboxylic acid]	> 7.30	+ (greater than 30% suppression of control ear swelling)	–
Cc1c(-n2ccc3c(-c4ccccc4)cccc32)nc2ccc(F)cc2c1C(=O)O [Ex. 46]	5.00 to 7.30	+ (greater than 30% suppression of control ear swelling)	–
